Experimental data taken from patent US11795177B2, “Substituted quinoline analogs as aldehyde dehydrogenase 1A1 (ALDH1A1) inhibitors” (THE UNITED STATES OF AMERICA, AS REPRESENTED BY THE …, priority 2017, dated 2023).
Where a name gives a salt, the structure may show the parent alone.

How the values were obtained:
ALDH1A1 enzyme = target: T1, ALDH1A1 enzyme (Homo sapiens, UniProt P00352); experiment: ALDH1A1 enzymatic assay (in vitro); assay type: biochemical; details: ALDH1A1 enzyme 20 nM, NAD+ 1 mM, propionaldehyde 80 μM; read-out: ALDH1A1 IC50
T1 sequence (P00352 1-501): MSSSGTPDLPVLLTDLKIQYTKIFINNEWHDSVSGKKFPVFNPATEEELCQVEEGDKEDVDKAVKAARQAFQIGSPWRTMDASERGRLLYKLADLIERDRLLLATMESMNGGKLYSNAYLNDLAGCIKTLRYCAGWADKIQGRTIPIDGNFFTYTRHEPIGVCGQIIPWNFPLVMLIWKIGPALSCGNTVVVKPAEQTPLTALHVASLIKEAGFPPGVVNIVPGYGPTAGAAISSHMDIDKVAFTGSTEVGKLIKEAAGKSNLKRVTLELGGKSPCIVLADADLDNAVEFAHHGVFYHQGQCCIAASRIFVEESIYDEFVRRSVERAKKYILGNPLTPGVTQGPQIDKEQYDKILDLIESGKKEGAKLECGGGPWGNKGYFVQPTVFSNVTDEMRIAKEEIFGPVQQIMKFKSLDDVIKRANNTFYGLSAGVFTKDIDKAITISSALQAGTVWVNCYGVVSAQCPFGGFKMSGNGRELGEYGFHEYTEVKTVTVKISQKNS
Procedure, shortened: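 ALDH1A1 (20 nM final) in 100 mM HEPES pH 7.5, 0.01% Tween 20 was preincubated 15 min at RT with compound (968 pM–57.2 μM final), then started with 1 mM NAD+ and 80 μM propionaldehyde. NADH fluorescence (ex 340/em 450 nm) followed kinetically for 10 min; change normalized to no-inhibitor and no-enzyme controls for percent inhibition and curve fitting.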

MIA PaCa-2 cells = experiment: MIA PaCa2 cell-based assay (1,536-well high-content imaging ALDEFLUOR assay); parameters: species or system human; details: Homo sapiens, 0.5 h, ALDEFLUOR BAAA substrate 500 nM, 30 minutes
Procedure, shortened: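 MIA PaCa-2 cells (1,000/well), plated overnight, given BAAA substrate (500 nM) plus Hoechst 33342 (0.5 nM), then compound (16-point, 1.4 nM–47.8 μM final; 0.5% DMSO). After 30 min at 37° C, ALDH activity imaged by high-content microscopy as BAA-retaining (FITC) cells versus Hoechst-stained nuclei.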

| SMILES | IC50 (ALDH1A1 enzyme) | IC50 (MIA PaCa-2 cells) |
| --- | --- | --- |
| CC1(C#N)CCN(c2c(C(=O)N3CCN(C(=O)N4CCCC4)CC3)cnc3cc(F)c(F)cc23)CC1 [Example 175, 1-(6,7-difluoro-3-(4-(pyrrolidine-1-carbonyl)piperazine-1-carbonyl)quinolin-4-yl)-4-methylpiperidine-4-carbonitrile] | 1000 to 10000 nM | 1000 to 10000 nM |
| C[C@@H]1CN(C(=O)C2CC2)CCN1C(=O)c1cnc2ccc(F)cc2c1N1CCC(C)(C#N)CC1 [Example 239, (R)-1-(3-(4-(cyclopropanecarbonyl)-2-methylpiperazine-1-carbonyl)-6-fluoroquinolin-4-yl)-4-methylpiperidine-4-carbonitrile] | < 500 nM | 1000 to 10000 nM |
| CC(=O)N1CCN(C(=O)c2cnc3ccc(F)cc3c2N2CCC3(CC2)OCCO3)CC1 [Example 51, 1-(4-(6-fluoro-4-(1,4-dioxa-8-azaspiro[4.5]decan-8-yl)quinoline-3-carbonyl)piperazin-1-yl)ethanone] | < 500 nM | > 10000 nM |
| COc1cc2ncc(C(=O)N3CCN(C(C)=O)CC3)c(N3CCC(C)(C#N)CC3)c2cc1OC [Example 112, 1-(3-(4-acetylpiperazine-1-carbonyl)-6,7-dimethoxyquinolin-4-yl)-4-methylpiperidine-4-carbonitrile] | < 500 nM | 1000 to 10000 nM |
| CCNC(=O)N1CCN(C(=O)c2cnc3c(F)cc(F)cc3c2N2CCC3(CC2)OCCO3)CC1 [Example 141, 4-(6,8-difluoro-4-(1,4-dioxa-8-azaspiro[4.5]decan-8-yl)quinoline-3-carbonyl)-N-ethylpiperazine-1-carboxamide] | < 500 nM | 1000 to 10000 nM |
| O=C(c1cnc2ccc(F)cc2c1N1CCC2(CC1)OCCO2)N1CCOCC1 [Example 58, (6-fluoro-4-(1,4-dioxa-8-azaspiro[4.5]decan-8-yl)quinolin-3-yl)(morpholino)methanone] | 500 to 1000 nM | > 10000 nM |
| CN(C)C(=O)N1CCN(C(=O)c2cnc3cc(F)c(F)cc3c2N2CCC3(CC2)OCCO3)CC1 [Example 181, 4-(6,7-difluoro-4-(1,4-dioxa-8-azaspiro[4.5]decan-8-yl)quinoline-3-carbonyl)-N,N-dimethylpiperazine-1-carboxamide] | < 500 nM | 1000 to 10000 nM |
| COc1ccc2ncc(C(=O)N3CCS(=O)(=O)CC3)c(N3CCC4(CC3)OCCO4)c2c1 [Example 36, (1,1-dioxidothiomorpholino)(6-methoxy-4-(1,4-dioxa-8-azaspiro[4.5]decan-8-yl)quinolin-3-yl)methanone] | < 500 nM | > 10000 nM |
| CCNC(=O)N1CCN(C(=O)c2cnc3ccc(F)cc3c2N2CCC3(CC2)OCCO3)CC1 [Example 56, N-ethyl-4-(6-fluoro-4-(1,4-dioxa-8-azaspiro[4.5]decan-8-yl)quinoline-3-carbonyl)piperazine-1-carboxamide] | < 500 nM | > 10000 nM |
| C[C@H]1CN(C(=O)C2CC2)CCN1C(=O)c1cnc2ccc(F)cc2c1N1CCC(C)(C#N)CC1 [Example 238, (s)-1-(3-(4-(cyclopropanecarbonyl)-2-methylpiperazine-1-carbonyl)-6-fluoroquinolin-4-yl)-4-methylpiperidine-4-carbonitrile] | 1000 to 10000 nM | > 10000 nM |
| CCNC(=O)N1CCN(C(=O)c2cnc3ccc(OC)cc3c2N2CCC3(CC2)OCCO3)CC1 [Example 43, N-ethyl-4-(6-methoxy-4-(1,4-dioxa-8-azaspiro[4.5]decan-8-yl)quinoline-3-carbonyl)piperazine-1-carboxamide] | < 500 nM | 1000 to 10000 nM |
| CCN(CC)C(=O)N1CCN(C(=O)c2cnc3c(F)cc(F)cc3c2N2CCC3(CC2)OCCO3)CC1 [Example 159, 4-(6,8-difluoro-4-(1,4-dioxa-8-azaspiro[4.5]decan-8-yl)quinoline-3-carbonyl)-N,N-diethylpiperazine-1-carboxamide] | < 500 nM | 1000 to 10000 nM |
| CC1(C#N)CCN(c2c(C(=O)N3CCN(C(=O)C4CC4)CC3)cnc3[nH]ncc23)CC1 [Example 237, 1-(5-(4-(cyclopropanecarbonyl)piperazine-1-carbonyl)-1H-pyrazolo[3,4-b]pyridin-4-yl)-4-methylpiperidine-4-carbonitrile] | 1000 to 10000 nM | > 10000 nM |
| COc1ccc2ncc(C(=O)N3CCN(C(=O)c4cnn(C)c4)CC3)c(N3CCC4(CC3)OCCO4)c2c1 [Example 7, (6-methoxy-4-(1,4-dioxa-8-azaspiro[4.5]decan-8-yl)quinolin-3-yl)(4-(1-methyl-1H-pyrazole-4-carbonyl)piperazin-1-yl)methanone, TFA] | < 500 nM | > 10000 nM |
| COc1ccc2ncc(C(=O)N3CCN(C(=O)C4CC4)CC3)c(N3CCC(C#N)CC3)c2c1 [Example 25, 1-(3-(4-(cyclopropanecarbonyl)piperazine-1-carbonyl)-6-methoxyquinolin-4-yl)piperidine-4-carbonitrile] | > 10000 nM | > 10000 nM |

Continued, values first:

| IC50 (ALDH1A1 enzyme) | IC50 (MIA PaCa-2 cells) | SMILES |
| --- | --- | --- |
| < 500 nM | 1000 to 10000 nM | COc1ccc2ncc(C(=O)N3CCN(S(C)(=O)=O)CC3)c(N3CCC4(CC3)OCCO4)c2c1 [Example 13, (6-methoxy-4-(1,4-dioxa-8-azaspiro[4.5]decan-8-yl)quinolin-3-yl)(4-(methylsulfonyl)piperazin-1-yl)methanone, TFA] |
| < 500 nM | 1000 to 10000 nM | N#CC1(c2ccc(-c3c(C(=O)N4CC5(C4)CS(=O)(=O)C5)cnc4ccc(F)cc34)cc2)CC1 [Cpd. 332, 1-(4-(3-(2,2-dioxido-2-thia-6-azaspiro[3.3]heptane-6-carbonyl)-6-fluoroquinolin-4-yl)phenyl)cyclopropane-1-carbonitrile] |
| < 500 nM | 1000 to 10000 nM | N#CC1(c2ccc(-c3c(C(=O)N4CCC(O)CC4)cnc4ccc(F)cc34)cc2)CC1 [Cpd. 337, 1-(4-(6-fluoro-3-(4-hydroxypiperidine-1-carbonyl)quinolin-4-yl)phenyl)cyclopropane-1-carbonitrile] |
| < 500 nM | 1000 to 10000 nM | COc1ccc2c(N3CCC(C)(C#N)CC3)c(C(=O)N3CCN(C(=O)C4CC4)CC3)cnc2c1 [Example 101, 1-(3-(4-(cyclopropanecarbonyl)piperazine-1-carbonyl)-7-methoxyquinolin-4-yl)-4-methylpiperidine-4-carbonitrile] |
| < 500 nM | < 500 nM | CN(C)S(=O)(=O)N1CCN(C(=O)c2cnc3ccc(Cl)cc3c2-c2ccc(C3(C#N)CC3)cc2)CC1 [Example 298, 4-(6-chloro-4-(4-(1-cyanocyclopropyl)phenyl)quinoline-3-carbonyl)-N,N-dimethylpiperazine-1-sulfonamide] |
| < 500 nM | < 500 nM | CC(C)(C#N)c1ccc(-c2c(C(=O)N3CCN(S(C)(=O)=O)CC3)ccc3ccccc23)cc1 [Example 299, 2-methyl-2-(4-(2-(4-(methylsulfonyl)piperazine-1-carbonyl)naphthalen-1-yl)phenyl)propanenitrile] |
| 1000 to 10000 nM | > 10000 nM | CC1(C#N)CCN(c2c(C(=O)N3CCN(S(=O)(=O)N4CCCC4)CC3)cnc3c(F)cc(F)cc23)CC1 [Example 168, 1-(6,8-difluoro-3-(4-(pyrrolidin-1-ylsulfonyl)piperazine-1-carbonyl)quinolin-4-yl)-4-methylpiperidine-4-carbonitrile] |
| < 500 nM | < 500 nM | CS(=O)(=O)C1CCN(C(=O)c2cnc3ccsc3c2-c2ccc(C3(C#N)CC3)cc2)CC1 [Example 283] |
| < 500 nM | 1000 to 10000 nM | O=C(c1cnc2ccc(F)cc2c1N1CCC2(CC1)C(=O)Cc1ccccc12)N1CCN(C(=O)C2CC2)CC1 [Example 246, 1′-(3-(4-(cyclopropanecarbonyl)piperazine-1-carbonyl)-6-fluoroquinolin-4-yl)spiro[indene-1,4′-piperidin]-2(3H)-one] |
| < 500 nM | 1000 to 10000 nM | CCS(=O)(=O)N1CCN(C(=O)c2cnc3c(F)cc(F)cc3c2N2CCC(C)(C#N)CC2)CC1 [Example 166, 1-(3-(4-(ethylsulfonyl)piperazine-1-carbonyl)-6,8-difluoroquinolin-4-yl)-4-methylpiperidine-4-carbonitrile] |
| < 500 nM | 1000 to 10000 nM | CN(C)C(=O)N1CCN(C(=O)c2cnc3cc(F)c(F)cc3c2N2CCC(C)(C#N)CC2)CC1 [Example 184, 4-(4-(4-cyano-4-methylpiperidin-1-yl)-6,7-difluoroquinoline-3-carbonyl)-N,N-dimethylpiperazine-1-carboxamide] |
| < 500 nM | < 500 nM | CS(=O)(=O)N1CCN(C(=O)c2cnc3ccc(F)cc3c2-c2ccc(/C(C#N)=C/C3CC3)cc2)CC1 [Cpd. 357, (Z)-3-cyclopropyl-2-(4-(6-fluoro-3-(4-(methylsulfonyl)piperazine-1-carbonyl)quinolin-4-yl)phenyl)acrylonitrile] |
